Data: patent US6350477B1, “Food material containing antioxidant ingredient derived from citrus fruits” (Pokka Corporation, priority 1998, dated 2002)

How the values were obtained:
[1] = Mutagenicity test according to Rec-assay; type: cell-based
Experimental: (§1) Eriocitrin is an ingredient derived from natural products, and it is contained in a juice of citrus fruits such as lemon and lime which have been already eaten in a large amount of several tens of milligrams per 100 ml. There is no problem with a safety to humans. It is negative in the mutagenicity test according to Rec-assay or Ames assay. Thus, the safety has been identified.

[2] = Mutagenicity test according to Ames assay; type: cell-based
Experimental: as §1

With `C[C@@H]1O[C@@H](OC[C@H]2O[C@@H](Oc3cc(O)c4c(c3)O[C@H](c3ccc(O)c(O)c3)CC4=O)[C@H](O)[C@@H](O)[C@@H]2O)[C@H](O)[C@H](O)[C@H]1O` [Eriocitrin, eriodictyol-7-rutinoside] the “mutagenicity test according to Rec-assay” value [1] was “negative” and the “mutagenicity test according to Ames assay” value [2] was “negative”.
